Data published in ChEMBL document CHEMBL3638618, “Uracil compound or salt thereof having human deoxyuridine triphosphatase inhibitory activity” (2013).

Biological target: T1, Deoxyuridine 5'-triphosphate nucleotidohydrolase, mitochondrial (Homo sapiens, UniProt P33316)
T1 sequence (P33316 whole entry): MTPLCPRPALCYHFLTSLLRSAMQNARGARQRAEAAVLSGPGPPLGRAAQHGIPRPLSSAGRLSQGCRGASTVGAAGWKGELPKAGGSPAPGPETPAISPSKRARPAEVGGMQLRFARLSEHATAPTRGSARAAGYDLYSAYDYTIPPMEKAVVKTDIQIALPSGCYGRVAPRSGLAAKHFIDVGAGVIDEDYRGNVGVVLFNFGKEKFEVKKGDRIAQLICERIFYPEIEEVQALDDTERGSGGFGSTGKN
Test: Inhibition Assay: The inhibitory activity of the compound against human dUTPase was determined by measuring the production of [5-3H]deoxyuridine monophosphate from [5-3H]deoxyuridine triphosphate.

## C[C@@H](NS(=O)(=O)CCCOCn1ccc(=O)[nH]c1=O)c1cccc(OCCF)c1
  IC50: 410 nM
